How the values were obtained:
[1] = molecular target: T1, human phosphodiesterase 5 (PDE 5) (Homo sapiens, UniProt O76074); assay: Inhibition of human phosphodiesterase 5 (PDE 5); type: biochemical; conditions: PDE 5 preparation from human platelets; in some cases means of individual determinations
T1 construct: PDE 5 preparations are obtained from human platelets by disruption; from tissue; host or cells: human platelets
In short: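 IC50 comes from percent inhibition over a 1:3 series with final levels of 4 to 0.0018 μM. Reaction: tritiated cGMP tracer (0.025 μCi) with platelet-derived, Mono Q-purified enzyme, 1 h at room temperature in Tris pH 7.5, under 70% turnover. Read-out by scintillation proximity beads.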

[2] = molecular target: T2, recombinant guanylate cyclase reporter cell line (Rattus norvegicus, UniProt P19686+P20595); assay: Effect on a recombinant guanylate cyclase reporter cell line; type: cell-based; conditions: MEC = minimum effective concentration; in some cases means of individual determinations
T2 construct: expressed in transfected cells
T2 sequence (P19686 1-690): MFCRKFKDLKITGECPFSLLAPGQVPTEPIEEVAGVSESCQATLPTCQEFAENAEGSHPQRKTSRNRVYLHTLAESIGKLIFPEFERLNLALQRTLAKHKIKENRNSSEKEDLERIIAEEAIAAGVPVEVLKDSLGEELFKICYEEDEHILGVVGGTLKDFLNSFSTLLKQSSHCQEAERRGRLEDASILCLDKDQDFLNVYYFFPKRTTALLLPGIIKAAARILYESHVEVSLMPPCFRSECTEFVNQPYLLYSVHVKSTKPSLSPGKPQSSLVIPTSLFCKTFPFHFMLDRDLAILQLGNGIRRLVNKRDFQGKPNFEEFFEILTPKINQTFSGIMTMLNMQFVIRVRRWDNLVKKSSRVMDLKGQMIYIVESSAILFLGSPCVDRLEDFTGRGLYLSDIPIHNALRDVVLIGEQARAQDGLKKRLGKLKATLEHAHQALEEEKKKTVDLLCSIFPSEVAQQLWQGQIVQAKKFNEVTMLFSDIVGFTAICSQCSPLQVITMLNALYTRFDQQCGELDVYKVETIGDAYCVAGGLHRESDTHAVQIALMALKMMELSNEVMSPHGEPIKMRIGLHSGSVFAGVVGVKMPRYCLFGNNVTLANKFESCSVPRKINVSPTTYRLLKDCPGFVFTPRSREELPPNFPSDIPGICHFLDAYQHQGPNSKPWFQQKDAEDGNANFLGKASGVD
T2 sequence (P20595 1-619): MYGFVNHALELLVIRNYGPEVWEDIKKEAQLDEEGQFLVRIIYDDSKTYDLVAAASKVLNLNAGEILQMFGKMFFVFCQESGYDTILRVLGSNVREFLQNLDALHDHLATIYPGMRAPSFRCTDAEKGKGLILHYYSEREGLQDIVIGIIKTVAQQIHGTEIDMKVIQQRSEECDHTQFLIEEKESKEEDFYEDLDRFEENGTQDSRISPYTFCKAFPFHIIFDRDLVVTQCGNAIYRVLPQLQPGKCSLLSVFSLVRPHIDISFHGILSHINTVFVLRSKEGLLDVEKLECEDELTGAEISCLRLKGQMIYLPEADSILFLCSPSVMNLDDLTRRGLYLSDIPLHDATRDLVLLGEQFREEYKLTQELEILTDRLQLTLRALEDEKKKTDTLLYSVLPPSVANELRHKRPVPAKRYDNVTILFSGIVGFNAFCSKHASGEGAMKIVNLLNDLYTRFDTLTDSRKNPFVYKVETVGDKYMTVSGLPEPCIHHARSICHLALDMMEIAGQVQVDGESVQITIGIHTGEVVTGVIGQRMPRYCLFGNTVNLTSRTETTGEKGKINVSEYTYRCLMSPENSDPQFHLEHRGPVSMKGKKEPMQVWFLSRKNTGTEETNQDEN
In short: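 Values are reported as MEC, sometimes averaged over individual determinations. The test system is a reporter cell line expressing recombinant rat guanylate cyclase.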

With `Cc1nc2c(cc1F)c(-c1nc3c(c(C(N)=O)n1)C(C)(C)C(=O)N3)nn2Cc1cccc(F)c1F` [Example 4, 2-[1-(2,3-Difluorobenzyl)-5-fluoro-6-methyl-1H-pyrazolo[3,4-b]pyridin-3-yl]-5,5-dimethyl-6-oxo-6,7-dihydro-5H-pyrrolo[2,3-d]pyrimidine-4-carboxamide] the IC50 [1] was 110 nM and the MEC [2] was 0.2 µM.
`Cc1nc2c(cc1F)c(-c1nc3c(c(C(N)=O)n1)C(C)(C)C(=O)N3)nn2Cc1ccccc1F` [Example 5, 2-[5-Fluoro-1-(2-fluorobenzyl)-6-methyl-1H-pyrazolo[3,4-b]pyridin-3-yl]-5,5-dimethyl-6-oxo-6,7-dihydro-5H-pyrrolo[2,3-d]pyrimidine-4-carboxamide] gave an IC50 [1] of 86 nM and an MEC [2] of 0.3 µM.
In the case of `Cc1nc2c(cc1F)c(-c1nc3c(c(C(N)=O)n1)C(C)(C)C(=O)N3)nn2Cc1c(F)ccc(F)c1F` [Example 6, 2-[5-Fluoro-6-methyl-1-(2,3,6-trifluorobenzyl)-1H-pyrazolo[3,4-b]pyridin-3-yl]-5,5-dimethyl-6-oxo-6,7-dihydro-5H-pyrrolo[2,3-d]pyrimidine-4-carboxamide], the IC50 [1] is reported as 140 nM and the MEC [2] is reported as 0.2 µM.
Work on `Cc1nc2c(cc1F)c(-c1nc3c(c(C(N)=O)n1)C(C)(C)C(=O)N3)nn2Cc1ncccc1F` [Example 7, 2-{5-Fluoro-1-[(3-fluoropyridin-2-yl)methyl]-6-methyl-1H-pyrazolo[3,4-b]pyridin-3-yl}-5,5-dimethyl-6-oxo-6,7-dihydro-5H-pyrrolo[2,3-d]pyrimidine-4-carboxamide] yielded an IC50 [1] of 130 nM and an MEC [2] of 3 µM.
`CC1(C)C(=O)Nc2nc(-c3nn(Cc4ncccc4F)c4ncc(F)cc34)nc(C(N)=O)c21` [Example 8, 2-{5-fluoro-1-[(3-fluoropyridin-2-yl)methyl]-1H-pyrazolo[3,4-b]pyridin-3-yl}-5,5-dimethyl-6-oxo-6,7-dihydro-5H-pyrrolo[2,3-d]pyrimidine-4-carboxamide] was tested, and the IC50 [1] was 81 nM and the MEC [2] was 2 µM.
For `CC1(C)C(=O)Nc2nc(-c3nn(Cc4ccccc4F)c4ncccc34)nc(C(=O)NC3CC3)c21` [Example 24, N-Cyclopropyl-2-[1-(2-fluorobenzyl)-1H-pyrazolo[3,4-b]pyridin-3-yl]-5,5-dimethyl-6-oxo-6,7-dihydro-5H-pyrrolo[2,3-d]pyrimidine-4-carboxamide], the IC50 [1] was 3.5 nM and the MEC [2] was 0.1 µM.
Molecule `CC(C)(O)CNC(=O)c1nc(-c2nn(Cc3ccccc3F)c3ncccc23)nc2c1C(C)(C)C(=O)N2` [Example 25] has an IC50 [1] of 2 nM and an MEC [2] of 0.3 µM.
Work on `CC1(C)C(=O)Nc2nc(-c3nn(Cc4ccccc4F)c4ncccc34)nc(C(=O)N3CCC(O)C3)c21` (stereo not drawn) [Example 26] yielded an IC50 [1] of 930 nM and an MEC [2] of 0.3 µM.
With `CC1(C)C(=O)Nc2nc(-c3nn(Cc4ccccc4F)c4ncc(F)cc34)nc(C(=O)NCC3(O)CC3)c21` [Example 27, 2-[5-Fluoro-1-(2-fluorobenzyl)-1H-pyrazolo[3,4-b]pyridin-3-yl]-N-[(1-hydroxycyclopropyl)methyl]-5,5-dimethyl-6-oxo-6,7-dihydro-5H-pyrrolo[2,3-d]pyrimidine-4-carboxamide] the IC50 [1] was 51 nM and the MEC [2] was 0.1 µM.
`CC1(C)C(=O)Nc2nc(-c3nn(Cc4ccccc4F)c4ncc(F)cc34)nc(C(=O)NC3CC3)c21` [Example 28] showed an IC50 [1] of 5.2 nM and an MEC [2] of 0.03 µM.
Molecule `CC(C)(O)CNC(=O)c1nc(-c2nn(Cc3ccccc3F)c3ncc(F)cc23)nc2c1C(C)(C)C(=O)N2` [Example 29] has an IC50 [1] of 12 nM and an MEC [2] of 0.3 µM.
In the case of `CC(C)(N)CNC(=O)c1nc(-c2nn(Cc3ccccc3F)c3ncc(F)cc23)nc2c1C(C)(C)C(=O)N2` [Example 30], the IC50 [1] is reported as 310 nM and the MEC [2] is reported as 1 µM.
For `CC1(C)C(=O)Nc2nc(-c3nn(Cc4ccccc4F)c4ncc(F)cc34)nc(C(=O)NC3(C#N)CC3)c21` [Example 31], the IC50 [1] was 10 nM and the MEC [2] was 0.1 µM.
With `CC1(C)C(=O)Nc2nc(-c3nn(Cc4ncccc4F)c4ncc(F)cc34)nc(C(=O)NC3CC3)c21` [Example 32] the IC50 [1] was 12 nM and the MEC [2] was 1 µM.
Molecule `CN(CC1CC1)C(=O)c1nc(-c2nn(Cc3ncccc3F)c3ncc(F)cc23)nc2c1C(C)(C)C(=O)N2` [Example 33] has an IC50 [1] of 110 nM and an MEC [2] of 0.1 µM.
`CC1(C)C(=O)Nc2nc(-c3nn(Cc4ncccc4F)c4ncc(F)cc34)nc(C(=O)NC(C3CC3)C3CC3)c21` [Example 34] was tested, and the IC50 [1] was 77 nM and the MEC [2] was 1 µM.
With `CN(CCO)C(=O)c1nc(-c2nn(Cc3ncccc3F)c3ncc(F)cc23)nc2c1C(C)(C)C(=O)N2` [Example 35] the IC50 [1] was 1300 nM and the MEC [2] was 10 µM.
`COCCNC(=O)c1nc(-c2nn(Cc3ncccc3F)c3ncc(F)cc23)nc2c1C(C)(C)C(=O)N2` [Example 36] showed an IC50 [1] of 73 nM and an MEC [2] of 3 µM.
`Cc1nc2c(cc1F)c(-c1nc3c(c(C(=O)NC4CC4)n1)C(C)(C)C(=O)N3)nn2Cc1cccc(F)c1F` [Example 37] showed an IC50 [1] of 4 nM and an MEC [2] of 0.1 µM.
For `Cc1nc2c(cc1F)c(-c1nc3c(c(C(=O)N(C)CC4CC4)n1)C(C)(C)C(=O)N3)nn2Cc1cccc(F)c1F` [Example 38], the IC50 [1] was 770 nM and the MEC [2] was 0.01 µM.
Work on `Cc1nc2c(cc1F)c(-c1nc3c(c(C(=O)NC(C4CC4)C4CC4)n1)C(C)(C)C(=O)N3)nn2Cc1cccc(F)c1F` [Example 39] yielded an IC50 [1] of 34 nM and an MEC [2] of 0.3 µM.
In the case of `Cc1nc2c(cc1F)c(-c1nc3c(c(C(=O)N(C)CCO)n1)C(C)(C)C(=O)N3)nn2Cc1cccc(F)c1F` [Example 40], the IC50 [1] is reported as 240 nM and the MEC [2] is reported as 0.03 µM.
`COCCNC(=O)c1nc(-c2nn(Cc3cccc(F)c3F)c3nc(C)c(F)cc23)nc2c1C(C)(C)C(=O)N2` [Example 41] was tested, and the IC50 [1] was 88 nM and the MEC [2] was 0.065 µM.
For `CC1(C)C(=O)Nc2nc(-c3nn(Cc4ccccc4F)c4cc(Cl)ccc34)nc(C(=O)NCC3CC3)c21` [Example 42, 2-[6-Chloro-1-(2-fluorobenzyl)-1H-indazol-3-yl]-N-(cyclopropylmethyl)-5,5-dimethyl-6-oxo-6,7-dihydro-5H-pyrrolo[2,3-d]pyrimidine-4-carboxamide], the IC50 [1] was 74 nM and the MEC [2] was 0.3 µM.
Molecule `CC1(C)C(=O)Nc2nc(-c3nn(Cc4ccccc4F)c4cc(Cl)ccc34)nc(C(=O)NC3CC3)c21` [Example 43] has an IC50 [1] of 14 nM and an MEC [2] of 0.3 µM.
For `CC1(C)C(=O)Nc2nc(-c3nn(Cc4ccccc4F)c4cc(Cl)ccc34)nc(C(=O)NCC(F)(F)F)c21` [Example 44], the IC50 [1] was 110 nM and the MEC [2] was 0.3 µM.
In the case of `CC1(C)C(=O)Nc2nc(-c3nn(Cc4ccccc4F)c4cc(Cl)ccc34)nc(C(=O)NCCC(F)(F)F)c21` [Example 45], the IC50 [1] is reported as 130 nM and the MEC [2] is reported as 0.3 µM.
`CN(C(=O)c1nc(-c2nn(Cc3ccccc3F)c3cc(Cl)ccc23)nc2c1C(C)(C)C(=O)N2)C1CC1` [Example 46] was tested, and the IC50 [1] was 1000 nM and the MEC [2] was 0.03 µM.
In the case of `CN(CC1CC1)C(=O)c1nc(-c2nn(Cc3ccccc3F)c3cc(Cl)ccc23)nc2c1C(C)(C)C(=O)N2` [Example 47], the IC50 [1] is reported as 730 nM and the MEC [2] is reported as 0.03 µM.
`CC1(C)C(=O)Nc2nc(-c3nn(Cc4ccccc4F)c4cc(Cl)ccc34)nc(C(=O)N3CCCC3)c21` [Example 48] gave an IC50 [1] of 1100 nM and an MEC [2] of 0.1 µM.
Molecule `CC1(C)C(=O)Nc2nc(-c3nn(Cc4ccccc4F)c4ncc(F)cc34)nc(C(=O)NCC3CC3)c21` [Example 49] has an IC50 [1] of 33 nM and an MEC [2] of 0.1 µM.
`CC1(C)C(=O)Nc2nc(-c3nn(Cc4ccccc4F)c4ncc(F)cc34)nc(C(=O)NCC(F)(F)F)c21` [Example 50] was tested, and the IC50 [1] was 19 nM and the MEC [2] was 0.1 µM.
Molecule `CC1(C)C(=O)Nc2nc(-c3nn(Cc4ccccc4F)c4ncc(F)cc34)nc(C(=O)NCCC(F)(F)F)c21` [Example 51] has an IC50 [1] of 87 nM and an MEC [2] of 0.1 µM.

From US20170233413A1, “SUBSTITUTED ANNULATED PYRIMIDINES AND USE THEREOF” (Bayer Pharma Aktiengesellschaft, priority 2014, published 2017)
